These results are taken from patent publication US12258329B2 (Merck Sharp & Dohme LLC, priority 2018, dated 2025).

The subject of the first experiment is infected PBMCs (VSV-G pseudotyped HIV virus VSV-G/pNLG1-P2A-ΔEnv). Briefly: cells. The format is cell-based, human. As to conditions: Homo sapiens, PBMC, read-out: TACK EC50.
What is called EC50 is the midpoint of the concentration-response curve. For the molecule `Cc1nc(C)c(Cn2cnc(C(C)(F)F)c(Oc3cc(C(F)F)cc(C#N)c3F)c2=O)c(=O)[nH]1` [Example 15, 3-((4-(1,1-difluoroethyl)-1-((2,4-dimethyl-6-oxo-1,6-dihydropyrimidin-5-yl)methyl)-6-oxo-. 1,6-dihydropyrimidin-5-yl)oxy)-5-(difluoromethyl)-2-fluorobenzonitrile], the EC50 amounted to 245 nM. The same measure, in the same setting: then `Cc1nc(N)c(Cn2cnc(C(F)(F)F)c(Oc3cc(C(F)F)cc(C#N)c3C)c2=O)c(=O)[nH]1` [Example 60, 3-((1-((4-amino-2-methyl-6-oxo-1,6-dihydropyrimidin-5-yl)methyl)-6-oxo-4-(trifluoromethyl)-1,6-dihydropyrimidin-5-yl)oxy)-5-(difluoromethyl)-2-methylbenzonitrile], with 228 nM.

`COCCCc1nc(C)c(Cn2cnc(C(F)(F)C(F)(F)F)c(Oc3cc(Cl)cc(C#N)c3F)c2=O)c(=O)[nH]1` [Example 55, 5-chloro-2-fluoro-3-((1-((2-(3-methoxypropyl)-4-methyl-6-oxo-1,6-dihydropyrimidin-5-yl)methyl)-6-oxo-4-(perfluoroethyl)-1,6-dihydropyrimidin-5-yl)oxy)benzonitrile]: the EC50 was 276 nM. The same measure, in the same setting: then `Cc1nc(C)c(Cn2cnc(C(F)(F)C(F)F)c(Oc3cc(Br)cc(C#N)c3)c2=O)c(=O)[nH]1` [Example 7, 3-bromo-5-((1-((2,4-dimethyl-6-oxo-1,6-dihydropyrimidin-5-y1)methyl)-6-oxo-4-(1,1,2,2-tetrafluoroethyl)-1,6-dihydropyrimidin-5-yl)oxy)benzonitrile], with 353 nM; and `Cc1nc(C)c(Cn2cnc(C(C)(F)F)c(Oc3c(C)cc(C#N)cc3Cl)c2=O)c(=O)[nH]1` [Example 12, 3-chloro-4-((4-(1,1-difluoroethyl)-1-((2,4-dimethyl-6-oxo-1,6-dihydropyrimidin-5-y1)methyl)-6-oxo-1,6-dihydropyrimidin-5-yl)oxy)-5-methylbenzonitrile], with 200 nM; and `Cc1nc[nH]c(=O)c1Cn1cnc(C(F)(F)C(F)F)c(Oc2cc(C(F)F)cc(C#N)c2C)c1=O` [Example 79, 5-(difluoromethyl)-2-methyl-3-((1-((4-methyl-6-oxo-1,6-dihydropyrimidin-5-yl)methyl)-6-oxo-4-(1,1,2,2-tetra-fluoroethyl)-1,6-dihydropyrimidin-5-yl)oxy)benzonitrile], with 460 nM.

Take `Cc1nc(N)c(Cn2cnc(C(F)(F)C(F)F)c(Oc3cc(C(F)F)cc(C#N)c3C)c2=O)c(=O)[nH]1` [Example 59, 3-((1-((4-amino-2-methyl-6-oxo-1,6-dihydropyrimidin-5-yl)methyl)-6-oxo-4-(1,1,2,2-tetrafluoroethyl)-1,6-dihydropyrimidin-5-yl)oxy)-5-(difluoromethyl)-2-methylbenzonitrile]: the EC50 was 135 nM. Still for that read-out and setting: then `Cc1nc(N)c(Cn2cnc(C(C)(F)F)c(Oc3cc(Cl)cc(C#N)c3F)c2=O)c(=O)[nH]1` [Example 58, 3-((1-((4-amino-2-methyl-6-oxo-1,6-dihydropyrimidin-5-yl)methyl)-4-(1,1-difluoroethyl)-6-oxo-1,6-dihydropyrimidin-5-yl)oxy)-5-chloro-2-fluorobenzonitrile], with 252 nM; and `CCc1nc(C)[nH]c(=O)c1Cn1cnc(C(F)(F)C(F)F)c(Oc2cc(C(F)F)cc(C#N)c2C)c1=O` [Example 61, 5-(difluoromethyl)-3-((1-((4-ethyl-2-methyl-6-oxo-1,6-dihydropyrimidin-5-yl)methyl)-6-oxo-4-(1,1,2,2-tetrafluoroethyl)-1,6-dihydropyrimidin-5-yl)oxy)-2-methylbenzonitrile], with 485 nM; and `Cc1ncc(Cn2cnc(C(F)(F)C(F)F)c(Oc3cc(C#N)cc(C(F)F)c3)c2=O)c(=O)[nH]1` [Example 2, 3-(difluoromethyl)-5-((1-((2-methyl-6-oxo-1,6-dihydropyrimidin-5-yl)methyl)-6-oxo-4-(1,1,2,2-tetrafluoroethyl)-1,6-dihydropyrimidin-5-yl)oxy)benzonitrile], with 411 nM.

As to `Cc1nc(C)c(Cn2cnc(C(F)(F)F)c(Oc3cc(C(F)F)cc(C#N)c3C)c2=O)c(=O)[nH]1` [Example 8, 5-(difluoromethyl)-3-((1-((2,4-dimethyl-6-oxo-1,6-dihydropyrimidin-5-y1)methyl)-6-oxo-4-(trifluoromethyl)-1,6-dihydropyrimidin-5-y1)oxy)-2-methylbenzonitrile], the EC50 was 252 nM. With `COc1c(C#N)cc(C(F)F)cc1Oc1c(C(F)(F)C(F)F)ncn(Cc2cnc(C)[nH]c2=O)c1=O` [Example 1, 5-(difluoromethyl)-2-methoxy-3-((1-((2-methyl-6-oxo-1,6-dihydropyrimidin-5-yl)methyl)-6-oxo-4-(1,1,2,2-tetrafluoroethyl)-1,6-dihydropyrimidin-5-yl)oxy)benzonitrile], the concentration for a half-maximal effect (EC50) stood at 431 nM. Regarding `Cc1nc(C)c(Cn2cnc(C(C)(F)F)c(Oc3cc(C(F)F)cc(C#N)c3C)c2=O)c(=O)[nH]1` [Example 6, 3-((4-(1,1-difluoroethyl)-1-((2,4-dimethyl-6-oxo-1,6-dihydropyrimidin-5-y1)methyl)-6-oxo-1,6-dihydropyrimidin-5-yl)oxy)-5-(difluoromethyl)-2-methylbenzonitrile], the EC50 was determined as 201 nM.

On to `COc1cc(C#N)cc(C)c1Oc1c(C(F)(F)C(F)(F)F)ncn(Cc2c(C)nc(C)[nH]c2=O)c1=O` [Example 76, 4-((1-((2,4-dimethyl-6-oxo-1,6-dihydropyrimidin-5-yl)methyl)-6-oxo-4-(perfluoroethyl)-1,6-dihydropyrimidin-5-yl)oxy)-3-methoxy-5-methylbenzonitrile], for which the 50% effective concentration (EC50) is 498 nM. Same read-out and setting: then `Cc1nc(C)c(Cn2cnc(C(C)F)c(Oc3c(C)cc(C#N)cc3C)c2=O)c(=O)[nH]1` (single isomer, unassigned) [Example 43, (S) or (R)-4-((1-((2,4-dimethyl-6-oxo-1,6-dihydropyrimidin-5-yl)methyl)-4-(1-fluoroethyl)-6-oxo-1,6-dihydropyrimidin-5-yl)oxy)-3,5-dimethylbenzonitrile], with 438 nM. Consider `Cc1nc(C)c(Cn2cnc(C(F)(F)F)c(Oc3cc(Br)cc(C#N)c3Cl)c2=O)c(=O)[nH]1` [Example 89, 5-bromo-2-chloro-3-((1-((2,4-dimethyl-6-oxo-1,6-dihydro-pyrimidin-5-yl)methyl)-6-oxo-4-(trifluoromethyl)-1,6-dihydropyrimidin-5-yl)oxy) benzonitrile], for which the half-maximal effective concentration (EC50) was 434 nM. In the case of `Cc1cc(C#N)cc(C)c1Oc1c(C(F)(F)C(F)F)ncn(Cc2c(C)nc(CCCO)[nH]c2=O)c1=O` [Example 50, 4-((1-((2-(3-hydroxypropyl)-4-methyl-6-oxo-1,6-dihydropyrimidin-5-yl)methyl)-6-oxo-4-(1,1,2,2-tetrafluoroethyl)-1,6-dihydropyrimidin-5-yl)oxy)-3,5-dimethylbenzonitrile], the EC50 was determined as 250 nM. For the molecule `Cc1nc(C)c(Cn2cnc(C(C)(F)F)c(Oc3c(Cl)cc(C#N)cc3Cl)c2=O)c(=O)[nH]1` [Example 13, 3,5-dichloro-4-((4-(1,1-difluoroethyl)-1-((2,4-dimethyl-6-oxo-1,6-dihydropyrimidin-5-yl)methyl)-6-oxo-1,6-dihydropyrimidin-5-yl)oxy) benzonitrile], the concentration giving a half-maximal response (EC50) came to 395 nM.

With `Cc1nc(C)c(Cn2cnc(C(F)(F)C(F)F)c(Oc3cc(C(F)(F)F)cc(C#N)c3Cl)c2=O)c(=O)[nH]1` [Example 94, 2-chloro-3-((1-((2,4-dimethyl-6-oxo-1,6-dihydropyrimidin-5-yl)methyl)-6-oxo-4-(1,1,2,2-tetrafluoroethyl)-1,6-dihydropyrimidin-5-yl)oxy)-5-(trifluoromethyl)benzonitrile], the concentration giving a half-maximal response (EC50) came out at 492 nM. For the molecule `COc1c(C#N)cc(C(F)F)cc1Oc1c(C(C)(F)F)ncn(Cc2c(C)nc(C)[nH]c2=O)c1=O` [Example 9, 3-((4-(1,1-difluoroethyl)-1-((2,4-dimethyl-6-oxo-1,6-dihydropyrimidin-5-y1)methyl)-6-oxo-1,6-dihydropyrimidin-5-yl)oxy)-5-(difluoromethyl)-2-methoxybenzonitrile], the EC50 stood at 287 nM. For the molecule `Cc1nc(C)c(Cn2cnc(C(F)(F)C(F)(F)F)c(Oc3cccc(C#N)c3C)c2=O)c(=O)[nH]1` [Example 74, 3-((1-((2,4-dimethyl-6-oxo-1,6-dihydropyrimidin-5-yl)methyl)-6-oxo-4-(perfluoroethyl)-1,6-dihydropyrimidin-5-yl)oxy)-2-methylbenzonitrile], the EC50 worked out at 484 nM. For `Cc1nc(C)c(Cn2cnc(C(C)F)c(Oc3c(C)cc(C#N)cc3Cl)c2=O)c(=O)[nH]1` (single isomer, unassigned) [Example 18, (S) or (R)-3-chloro-4-((1-((2,4-dimethyl-6-oxo-1,6-dihydropyrimidin-5-y1)methyl)-4-(1-fluoroethyl)-6-oxo-1,6-dihydropyrimidin-5-yl)oxy)-5-methylbenzonitrile], the half-maximal effective concentration (EC50) is 129 nM. The same measure, in the same setting: then `CCc1nc(C)[nH]c(=O)c1Cn1cnc(C(F)(F)C(F)(F)F)c(Oc2cc(C(F)F)cc(C#N)c2C)c1=O` [Example 63, 5-(difluoromethyl)-3-((1-((4-ethyl-2-methyl-6-oxo-1,6-dihydropyrimidin-5-yl)methyl)-6-oxo-4-(perfluoroethyl)-1,6-dihydropyrimidin-5-yl)oxy)-2-methylbenzonitrile], with 276 nM.

Staying with this experiment, now noted: read-out: TACK EC50.
With “3-((4-(1, 1-difluoroethyl)-1-((2,4- dimethyl-6-oxo-1,6-dihydropyrimidin- 5-y1)methyl)-6-oxo-1,6- dihydropyrimidin-5-yl)oxy)-2,4,5- trifluorobenzonitrile [Example 14]”, the EC50 came to 343 nM. Turning to `Cc1nc(C)c(Cn2cnc(C(C)F)c(Oc3cc(C(F)F)cc(C#N)c3C)c2=O)c(=O)[nH]1` (single isomer, unassigned) [Example 29], the EC50 is 312 nM. Regarding “(S) or (R)-3,5-dichloro-4-((1-((2,4- dimethyl-6-oxo-1,6-dihydropyrimidin- 5-y1)methyl)-4-(1-fluoroethyl)-6-oxo- 1,6-dihydropyrimidin-5-yl)oxy) benzonitrile [Example 17]”, the concentration for a half-maximal effect (EC50) stood at 282 nM.
